Ki and IC50 data for 15 compounds are collected here from ChEMBL document CHEMBL1140446, “Designed multiple ligands. An emerging drug discovery paradigm” (J Med Chem, 2005).

For one assay, the target named is T1, Thromboxane A2 receptor (Homo sapiens, UniProt P21731).
T1 sequence (P21731 whole entry): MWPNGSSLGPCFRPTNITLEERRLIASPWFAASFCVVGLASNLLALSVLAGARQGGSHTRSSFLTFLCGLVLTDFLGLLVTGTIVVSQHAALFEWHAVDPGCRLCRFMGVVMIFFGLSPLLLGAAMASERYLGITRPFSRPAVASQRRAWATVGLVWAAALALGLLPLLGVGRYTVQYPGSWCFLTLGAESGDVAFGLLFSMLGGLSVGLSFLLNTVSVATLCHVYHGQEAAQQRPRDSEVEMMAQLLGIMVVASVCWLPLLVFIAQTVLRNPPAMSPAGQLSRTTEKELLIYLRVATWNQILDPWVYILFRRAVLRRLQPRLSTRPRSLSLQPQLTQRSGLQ

The target in a further assay is Thromboxane-A synthase (Homo sapiens, UniProt P24557).
Thromboxane-A synthase, sequence (P24557 whole entry): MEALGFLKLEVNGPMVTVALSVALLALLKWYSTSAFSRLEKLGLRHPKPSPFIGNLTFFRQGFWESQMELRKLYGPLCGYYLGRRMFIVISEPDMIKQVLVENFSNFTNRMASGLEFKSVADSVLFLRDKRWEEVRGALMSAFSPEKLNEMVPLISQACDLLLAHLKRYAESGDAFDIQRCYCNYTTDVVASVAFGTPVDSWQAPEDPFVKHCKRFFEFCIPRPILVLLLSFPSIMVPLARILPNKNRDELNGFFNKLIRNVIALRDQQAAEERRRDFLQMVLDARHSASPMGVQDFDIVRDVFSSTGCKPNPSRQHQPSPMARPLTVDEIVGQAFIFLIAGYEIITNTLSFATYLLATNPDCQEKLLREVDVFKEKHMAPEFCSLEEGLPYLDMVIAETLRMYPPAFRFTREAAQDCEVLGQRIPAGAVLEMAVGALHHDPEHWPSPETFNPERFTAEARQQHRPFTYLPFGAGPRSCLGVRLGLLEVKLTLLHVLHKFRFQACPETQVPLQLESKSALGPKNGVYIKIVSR
In assay [1] the target is T2, Polyunsaturated fatty acid 5-lipoxygenase (Homo sapiens, UniProt P09917).
T2 sequence (P09917 whole entry): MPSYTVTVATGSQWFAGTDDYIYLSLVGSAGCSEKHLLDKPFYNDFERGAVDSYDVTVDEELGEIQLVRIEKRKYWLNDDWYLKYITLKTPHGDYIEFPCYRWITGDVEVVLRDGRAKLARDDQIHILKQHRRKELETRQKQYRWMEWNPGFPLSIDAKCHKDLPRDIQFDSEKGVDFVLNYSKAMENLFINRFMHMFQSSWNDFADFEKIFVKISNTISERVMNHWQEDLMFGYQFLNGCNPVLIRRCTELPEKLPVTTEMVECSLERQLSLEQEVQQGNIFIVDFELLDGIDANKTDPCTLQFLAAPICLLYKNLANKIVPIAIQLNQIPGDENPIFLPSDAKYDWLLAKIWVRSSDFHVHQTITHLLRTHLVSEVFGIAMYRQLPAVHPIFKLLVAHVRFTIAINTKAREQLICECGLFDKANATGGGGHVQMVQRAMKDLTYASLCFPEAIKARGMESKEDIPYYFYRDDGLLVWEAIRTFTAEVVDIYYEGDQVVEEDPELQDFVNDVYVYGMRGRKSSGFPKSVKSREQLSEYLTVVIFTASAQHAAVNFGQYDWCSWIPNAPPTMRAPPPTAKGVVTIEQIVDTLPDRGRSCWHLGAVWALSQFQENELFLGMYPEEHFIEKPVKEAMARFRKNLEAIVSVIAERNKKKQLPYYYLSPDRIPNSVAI
Description: Inhibitory concentration against arachidonate 5-lipoxygenase

The next assay addresses Histamine H1 receptor (Homo sapiens, UniProt P35367).
Assay [2] addresses T3, Adrenergic receptor alpha-1 (Homo sapiens, UniProt P35348+P25100+P35368).
T3 sequence (P35348 whole entry): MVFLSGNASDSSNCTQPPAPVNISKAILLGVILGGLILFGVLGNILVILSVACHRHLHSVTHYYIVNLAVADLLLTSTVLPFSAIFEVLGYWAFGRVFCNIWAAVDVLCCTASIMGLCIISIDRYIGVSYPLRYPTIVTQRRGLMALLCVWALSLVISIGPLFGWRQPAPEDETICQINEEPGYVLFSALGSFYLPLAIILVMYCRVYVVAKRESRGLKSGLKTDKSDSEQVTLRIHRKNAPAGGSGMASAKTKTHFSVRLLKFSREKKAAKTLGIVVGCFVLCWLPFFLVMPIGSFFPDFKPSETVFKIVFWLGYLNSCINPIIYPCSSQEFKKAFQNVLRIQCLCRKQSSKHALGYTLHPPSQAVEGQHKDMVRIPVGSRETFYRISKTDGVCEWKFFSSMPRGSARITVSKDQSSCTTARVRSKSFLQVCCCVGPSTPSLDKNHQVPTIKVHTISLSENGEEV
T3 sequence (P25100 whole entry): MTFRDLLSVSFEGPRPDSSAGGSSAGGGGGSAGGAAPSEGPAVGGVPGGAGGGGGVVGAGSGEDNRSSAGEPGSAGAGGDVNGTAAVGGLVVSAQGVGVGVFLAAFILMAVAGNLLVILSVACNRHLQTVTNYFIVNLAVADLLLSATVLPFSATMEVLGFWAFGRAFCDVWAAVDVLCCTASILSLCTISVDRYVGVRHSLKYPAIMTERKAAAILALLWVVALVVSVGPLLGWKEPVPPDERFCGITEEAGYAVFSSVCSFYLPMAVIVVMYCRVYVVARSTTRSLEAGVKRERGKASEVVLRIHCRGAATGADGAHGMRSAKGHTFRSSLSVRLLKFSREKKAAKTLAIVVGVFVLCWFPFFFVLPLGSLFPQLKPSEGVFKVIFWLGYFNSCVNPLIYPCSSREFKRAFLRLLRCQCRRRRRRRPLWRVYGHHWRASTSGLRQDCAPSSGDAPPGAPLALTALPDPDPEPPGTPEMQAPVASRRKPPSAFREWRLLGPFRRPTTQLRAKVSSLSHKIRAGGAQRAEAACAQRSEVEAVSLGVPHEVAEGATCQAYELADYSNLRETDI
T3 sequence (P35368 whole entry): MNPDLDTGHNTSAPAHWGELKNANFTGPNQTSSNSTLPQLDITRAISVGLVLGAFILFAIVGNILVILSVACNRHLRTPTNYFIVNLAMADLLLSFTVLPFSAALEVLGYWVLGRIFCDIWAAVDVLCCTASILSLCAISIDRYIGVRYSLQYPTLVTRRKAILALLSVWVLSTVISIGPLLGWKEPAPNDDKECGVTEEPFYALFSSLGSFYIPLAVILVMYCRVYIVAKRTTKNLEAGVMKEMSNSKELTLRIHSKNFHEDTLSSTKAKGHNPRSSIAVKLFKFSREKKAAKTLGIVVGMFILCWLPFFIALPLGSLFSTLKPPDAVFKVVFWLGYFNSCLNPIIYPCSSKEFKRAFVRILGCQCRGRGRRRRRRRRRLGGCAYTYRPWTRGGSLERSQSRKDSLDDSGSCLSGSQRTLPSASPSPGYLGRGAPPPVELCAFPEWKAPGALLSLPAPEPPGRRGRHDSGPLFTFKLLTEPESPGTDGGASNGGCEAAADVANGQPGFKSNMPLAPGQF
Description: Inhibitory concentration against alpha adrenergic receptor

The target in assay [3] is T4, Type-1 angiotensin II receptor (Homo sapiens, UniProt P30556).
T4 sequence (P30556 whole entry): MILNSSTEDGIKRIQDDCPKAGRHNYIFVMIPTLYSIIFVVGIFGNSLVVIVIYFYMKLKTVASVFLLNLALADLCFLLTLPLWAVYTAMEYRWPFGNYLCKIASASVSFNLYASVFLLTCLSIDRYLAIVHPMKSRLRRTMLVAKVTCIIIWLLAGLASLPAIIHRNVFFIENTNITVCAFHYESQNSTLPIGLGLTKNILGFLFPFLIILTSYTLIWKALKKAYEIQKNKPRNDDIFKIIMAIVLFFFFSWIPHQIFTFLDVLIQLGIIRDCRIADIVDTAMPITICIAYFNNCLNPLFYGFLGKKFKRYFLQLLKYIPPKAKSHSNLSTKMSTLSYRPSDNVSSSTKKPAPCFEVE
Description: (§1) Inhibitory concentration against angiotensin II receptor, type 1

Assay [4] addresses T5, Type-2 angiotensin II receptor (Homo sapiens, UniProt P50052).
T5 sequence (P50052 whole entry): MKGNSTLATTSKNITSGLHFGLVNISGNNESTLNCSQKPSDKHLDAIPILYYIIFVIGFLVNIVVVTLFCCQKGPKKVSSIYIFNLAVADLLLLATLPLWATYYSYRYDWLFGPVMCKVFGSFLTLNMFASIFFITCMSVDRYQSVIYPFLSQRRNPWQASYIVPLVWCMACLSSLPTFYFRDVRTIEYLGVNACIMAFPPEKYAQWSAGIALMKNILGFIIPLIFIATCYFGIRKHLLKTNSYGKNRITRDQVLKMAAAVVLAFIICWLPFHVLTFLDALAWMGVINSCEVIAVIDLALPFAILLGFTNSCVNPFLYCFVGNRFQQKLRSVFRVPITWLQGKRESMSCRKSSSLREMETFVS
Description: Inhibitory concentration against angiotensin II receptor, type 2

The next assay deals with T6, Endothelin-1 receptor (Homo sapiens, UniProt P25101).
T6 sequence (P25101 whole entry): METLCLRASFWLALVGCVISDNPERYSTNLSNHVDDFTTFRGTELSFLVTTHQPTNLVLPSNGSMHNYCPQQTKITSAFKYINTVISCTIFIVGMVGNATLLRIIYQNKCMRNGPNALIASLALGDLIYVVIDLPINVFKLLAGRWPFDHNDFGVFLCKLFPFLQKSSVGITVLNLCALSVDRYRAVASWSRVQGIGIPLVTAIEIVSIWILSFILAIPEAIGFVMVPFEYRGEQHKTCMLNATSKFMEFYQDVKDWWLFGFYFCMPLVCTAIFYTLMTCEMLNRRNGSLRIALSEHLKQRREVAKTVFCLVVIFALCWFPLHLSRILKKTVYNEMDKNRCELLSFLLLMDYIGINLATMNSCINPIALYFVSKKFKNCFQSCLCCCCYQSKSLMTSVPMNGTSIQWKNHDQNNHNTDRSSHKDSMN

Assay [5] has as its target T4, Type-1 angiotensin II receptor. The source holds these as a separate data set.
Description: as §1
Assay [6] addresses Prostaglandin G/H synthase 1 (Homo sapiens, UniProt P23219).
Description: Inhibitory concentration against prostaglandin G/H synthase 1
Assay [7] deals with T7, Peroxisome proliferator-activated receptor gamma (Homo sapiens, UniProt P37231).
T7 sequence (P37231 whole entry): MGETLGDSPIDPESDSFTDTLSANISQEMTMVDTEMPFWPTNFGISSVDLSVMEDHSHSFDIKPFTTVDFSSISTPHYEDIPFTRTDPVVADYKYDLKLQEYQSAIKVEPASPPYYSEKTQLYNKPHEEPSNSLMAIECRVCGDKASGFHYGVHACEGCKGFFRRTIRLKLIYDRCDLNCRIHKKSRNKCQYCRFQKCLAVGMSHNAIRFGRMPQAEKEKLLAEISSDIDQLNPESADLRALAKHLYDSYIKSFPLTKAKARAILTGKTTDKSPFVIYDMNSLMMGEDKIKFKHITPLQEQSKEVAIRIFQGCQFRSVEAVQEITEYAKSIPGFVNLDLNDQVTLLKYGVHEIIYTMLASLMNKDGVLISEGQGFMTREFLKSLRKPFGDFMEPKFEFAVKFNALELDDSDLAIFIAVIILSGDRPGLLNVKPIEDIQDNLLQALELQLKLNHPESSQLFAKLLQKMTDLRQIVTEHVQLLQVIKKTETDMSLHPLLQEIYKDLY
Description: Binding affinity towards peroxisome proliferator activated receptor gamma

The target in assay [8] is T8, Peroxisome proliferator-activated receptor alpha (Homo sapiens, UniProt Q07869).
T8 sequence (Q07869 whole entry): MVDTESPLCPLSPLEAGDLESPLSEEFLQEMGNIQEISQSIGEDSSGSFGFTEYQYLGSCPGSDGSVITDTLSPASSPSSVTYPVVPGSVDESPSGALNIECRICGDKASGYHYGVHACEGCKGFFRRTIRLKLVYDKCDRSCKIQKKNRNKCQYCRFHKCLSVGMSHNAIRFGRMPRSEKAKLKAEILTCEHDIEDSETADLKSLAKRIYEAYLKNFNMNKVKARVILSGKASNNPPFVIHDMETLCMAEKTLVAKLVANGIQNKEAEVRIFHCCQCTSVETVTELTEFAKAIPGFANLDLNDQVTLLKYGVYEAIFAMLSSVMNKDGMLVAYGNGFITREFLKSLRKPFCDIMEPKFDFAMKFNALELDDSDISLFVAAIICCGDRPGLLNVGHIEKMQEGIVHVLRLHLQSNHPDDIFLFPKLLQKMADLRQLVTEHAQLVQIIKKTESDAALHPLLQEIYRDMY
Description: Binding affinity towards peroxisome proliferator activated receptor alpha

In general, Ki refers to the equilibrium dissociation constant of an inhibitor or competing ligand from its target. A lower Ki goes with tighter binding. By IC50 is commonly meant the concentration needed to halve the response being measured.

Prostaglandin G/H synthase 1, sequence (P23219 whole entry): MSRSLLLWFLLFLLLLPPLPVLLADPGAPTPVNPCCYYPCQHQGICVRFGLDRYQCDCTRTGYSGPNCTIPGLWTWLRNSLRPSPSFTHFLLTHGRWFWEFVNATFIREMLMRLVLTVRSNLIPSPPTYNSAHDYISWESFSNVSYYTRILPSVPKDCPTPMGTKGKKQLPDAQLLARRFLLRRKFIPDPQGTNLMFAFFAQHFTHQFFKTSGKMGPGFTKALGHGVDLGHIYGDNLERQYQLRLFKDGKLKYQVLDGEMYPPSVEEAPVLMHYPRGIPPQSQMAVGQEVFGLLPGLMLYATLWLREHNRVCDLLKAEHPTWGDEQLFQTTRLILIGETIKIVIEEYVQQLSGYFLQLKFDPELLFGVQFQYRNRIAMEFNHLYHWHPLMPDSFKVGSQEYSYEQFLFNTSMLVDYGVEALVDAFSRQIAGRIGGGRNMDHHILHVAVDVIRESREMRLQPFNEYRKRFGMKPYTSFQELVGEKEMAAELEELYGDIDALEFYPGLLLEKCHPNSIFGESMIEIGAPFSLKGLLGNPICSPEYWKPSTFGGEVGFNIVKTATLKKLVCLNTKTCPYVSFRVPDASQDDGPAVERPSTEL
Histamine H1 receptor, sequence (P35367 whole entry): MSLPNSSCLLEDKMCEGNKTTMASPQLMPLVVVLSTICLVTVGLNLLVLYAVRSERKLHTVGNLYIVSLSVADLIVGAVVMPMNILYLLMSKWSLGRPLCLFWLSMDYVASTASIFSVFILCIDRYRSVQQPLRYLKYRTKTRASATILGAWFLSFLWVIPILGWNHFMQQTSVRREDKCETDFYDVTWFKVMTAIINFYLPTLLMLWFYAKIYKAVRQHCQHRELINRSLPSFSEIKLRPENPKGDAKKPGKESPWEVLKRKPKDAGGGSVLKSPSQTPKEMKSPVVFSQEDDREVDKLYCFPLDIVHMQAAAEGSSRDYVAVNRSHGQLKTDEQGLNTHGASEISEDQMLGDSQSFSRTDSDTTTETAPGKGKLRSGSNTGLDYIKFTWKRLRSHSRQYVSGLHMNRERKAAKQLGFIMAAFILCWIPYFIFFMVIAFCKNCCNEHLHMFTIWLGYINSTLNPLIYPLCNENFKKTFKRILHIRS
Description for Endothelin-1 receptor: Inhibitory concentration against endothelin receptor type A
Description for Histamine H1 receptor: Inhibition constant against histamine H1 receptor
Description for Thromboxane A2 receptor: Inhibition constant against thromboxane A2 receptor to prostaglandin H2 receptor
Description for Thromboxane-A synthase: Inhibitory concentration against thromboxane A2 synthase

The compound `O=C(O)c1ccc2c(c1)/C(=C/Cn1cnc3ccccc31)c1ccccc1CO2` had a Ki at Thromboxane A2 receptor of 0.015 µM. In other words, the double-digit nanomolar range.

In the case of `CNc1nc2c(Cc3cccnc3)c(C)c(O)c(C)c2s1`, the IC50 was 0.09 µM at Thromboxane-A synthase and 0.1 µM in [1].

With `CN(C)C/C=C1\c2ccccc2COc2ccc(CC(=O)O)cc21`, the Ki at Thromboxane A2 receptor was greater than 1 µM; at Histamine H1 receptor, 0.011 µM.

In assay [2], `O=C(CN1CCN(Cc2ccc(Cl)cc2)CC1)N1CCc2ccccc21` gave an IC50 of 0.088 µM.

Consider `CCCCc1nc2ccc(NC(=O)N(C)C(C)C)cc2c(=O)n1Cc1ccc(-c2ccccc2-c2nnn[nH]2)cc1`, for which the results for the IC50 in assay [3] and in [4] were 0.0001 µM and 4.5 µM, respectively.

On to `CCCCC1=NC2(CCCC2)C(=O)N1Cc1ccc(-c2ccccc2S(=O)(=O)Nc2noc(C)c2C)c(COCC)c1`, for which the figures for the inhibitory constant (Ki) (at Endothelin-1 receptor; in [5]) were 0.0093 µM and 0.0008 µM, respectively.

On to `O=C(O)Cc1ccc2c(c1)C(=CCN1CCC(Cc3ccccc3)CC1)c1ccccc1CO2`, for which the figures for the inhibition constant (Ki) on Thromboxane A2 receptor and on Histamine H1 receptor were 0.74 µM and 0.02 µM, respectively.

As to `Cc1c(Cc2ccncc2)n(CCNS(=O)(=O)c2ccc(F)cc2)c2ccc(CCC(=O)O)cc12`, on Thromboxane-A synthase, the midpoint of inhibition, the IC50, lay at 0.078 µM. In other words, the double-digit nanomolar range.

For the compound `CCCCCN(C(=O)c1ccccc1)c1ccc2nc(CCC)n(Cc3ccc(-c4ccccc4-c4nn[nH]n4)cc3)c(=O)c2c1`, the IC50 was found to be 0.0017 µM in assay [3] and 0.0007 µM in assay [4].

In the case of `CC1(C)Cc2c(-c3ccccc3)c(-c3ccc(Cl)cc3)c(CC(=O)O)n2C1` [LICOFELONE], the half-inhibitory concentration (IC50) in assay [1] is 0.21 µM; in assay [6], 0.16 µM.

For the compound `Cc1oc(-c2ccccc2)nc1CCOc1ccc(OC(C)(C)C(=O)O)cc1`, the IC50 in assay [7] is 2.57 µM; in [8], 1.74 µM.

For `Cc1onc(NS(=O)(=O)c2ccccc2-c2ccc(-c3ncco3)cc2CN(C)C(=O)CC(C)(C)C)c1C` [EDONENTAN], the inhibition constant Ki on Endothelin-1 receptor was 0.01 µM; in assay [5], greater than 0.01 µM.

As to `CC(Cc1ccccc1)(Oc1ccc(Cl)cc1)C(=O)O` (stereo not given), the IC50 was 3.9 µM in assay [7] and 4.4 µM in assay [8].

In turn, `COC1(c2cc(F)cc(OCc3cc(-c4ccccc4)n(-c4ccc(S(C)(=O)=O)cc4)n3)c2)CCOCC1` came in with a half-maximal inhibitory concentration (IC50) in assay [6] greater than 0.01 µM.

In [2], `O=C1Cc2cc(CCN3CCN(c4nsc5ccccc45)CC3)c(Cl)cc2N1` [ZIPRASIDONE] came in with an IC50 of 0.011 µM. This lies in the double-digit nanomolar range.
